The text below walks through data of paper PMC9706565, “Covalently Conjugated NOD2/TLR7 Agonists Are Potent and Versatile Immune Potentiators” (Journal of Medicinal Chemistry, 2022).

One series deals with T1, TLR7 (Homo sapiens, UniProt Q9NYK1).
T1 construct: host or cells: HEK-Blue TLR7 (HEK293-derived)
T1 sequence (Q9NYK1 27-1049): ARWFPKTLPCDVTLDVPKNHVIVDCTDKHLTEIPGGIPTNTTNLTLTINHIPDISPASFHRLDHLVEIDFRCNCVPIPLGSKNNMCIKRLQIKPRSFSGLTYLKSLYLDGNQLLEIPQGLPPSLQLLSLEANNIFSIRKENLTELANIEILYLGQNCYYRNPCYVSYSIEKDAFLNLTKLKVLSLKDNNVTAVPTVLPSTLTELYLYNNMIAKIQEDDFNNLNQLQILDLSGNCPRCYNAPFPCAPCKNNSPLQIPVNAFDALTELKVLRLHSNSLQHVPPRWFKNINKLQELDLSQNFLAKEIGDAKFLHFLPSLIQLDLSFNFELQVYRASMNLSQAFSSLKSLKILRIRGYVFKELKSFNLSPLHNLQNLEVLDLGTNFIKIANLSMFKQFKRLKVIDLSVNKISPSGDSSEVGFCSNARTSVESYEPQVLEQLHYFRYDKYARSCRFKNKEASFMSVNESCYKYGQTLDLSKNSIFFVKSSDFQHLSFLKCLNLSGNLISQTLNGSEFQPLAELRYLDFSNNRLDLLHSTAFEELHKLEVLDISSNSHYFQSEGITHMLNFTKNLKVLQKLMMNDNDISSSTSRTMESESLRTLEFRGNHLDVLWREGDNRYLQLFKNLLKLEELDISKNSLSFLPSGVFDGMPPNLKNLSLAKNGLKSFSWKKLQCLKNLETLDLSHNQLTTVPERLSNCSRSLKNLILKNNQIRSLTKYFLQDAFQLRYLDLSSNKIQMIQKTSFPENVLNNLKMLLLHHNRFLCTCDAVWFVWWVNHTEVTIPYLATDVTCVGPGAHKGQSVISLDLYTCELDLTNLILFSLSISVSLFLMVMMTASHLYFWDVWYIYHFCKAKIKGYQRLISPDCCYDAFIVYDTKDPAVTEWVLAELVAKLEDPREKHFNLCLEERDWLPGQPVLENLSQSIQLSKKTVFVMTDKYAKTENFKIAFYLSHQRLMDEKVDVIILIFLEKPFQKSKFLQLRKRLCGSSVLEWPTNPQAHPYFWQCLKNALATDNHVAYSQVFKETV
Briefly: NF-κB transcriptional activity (SEAP reporter) in HEK-Blue TLR7 cells. The class given is cell-based. The following applies: for EC50: HEK-Blue TLR7 cells, 18 h, eight concentrations 1 nM to 10 μM, NA, not active. From the text: (§1) HEK-Blue NOD1 (Cat. code: hkb-hnod1), NOD2 (Cat. code: hkb-hnod2), and TLR7 (Cat. code: hkb-htlr7) cell lines (Invivogen, San Diego, CA) are derived from HEK293 cells by co-transfection of the hNOD1, hNOD2, or hTLR7 genes, respectively, and a nuclear factor-κB (NF-κB)-inducible secreted embryonic alkaline phosphatase (SEAP) reporter gene. Following activation of the respective receptors, the resulting NF-κB induces the production of SEAP, the levels of which can be quantified colorimetrically. […] All of the subsequent passages were cultured in medium additionally supplemented with 100 μg/mL Zeocin (Invivogen) and 30 μg/mL Blasticidin (Invivogen) for HEK-Blue NOD1 and NOD2 cells, or with 100 μg/mL Zeocin (Invivogen) and 10 μg/mL Blasticidin (Invivogen) for HEK-Blue TLR7 cells.
(§2) After 18 h of incubation (37 °C, 5% CO2), SEAP activity was determined spectrophotometrically as absorbance at 630 nm (BioTek Synergy microplate reader; Winooski, VT). EC50 values were calculated using the Prism software (version 9; GraphPad Software, CA).

The test system of another series is human PBMCs. Briefly: Cytokine release from peripheral blood mononuclear cells. The format is cell-based. The following applies: 1 μM, 18 h.
A further series deals with T2, NOD2 (Homo sapiens, UniProt Q9HC29).
T2 construct: host or cells: HEK-Blue NOD2 (HEK293-derived)
T2 sequence (Q9HC29 whole entry): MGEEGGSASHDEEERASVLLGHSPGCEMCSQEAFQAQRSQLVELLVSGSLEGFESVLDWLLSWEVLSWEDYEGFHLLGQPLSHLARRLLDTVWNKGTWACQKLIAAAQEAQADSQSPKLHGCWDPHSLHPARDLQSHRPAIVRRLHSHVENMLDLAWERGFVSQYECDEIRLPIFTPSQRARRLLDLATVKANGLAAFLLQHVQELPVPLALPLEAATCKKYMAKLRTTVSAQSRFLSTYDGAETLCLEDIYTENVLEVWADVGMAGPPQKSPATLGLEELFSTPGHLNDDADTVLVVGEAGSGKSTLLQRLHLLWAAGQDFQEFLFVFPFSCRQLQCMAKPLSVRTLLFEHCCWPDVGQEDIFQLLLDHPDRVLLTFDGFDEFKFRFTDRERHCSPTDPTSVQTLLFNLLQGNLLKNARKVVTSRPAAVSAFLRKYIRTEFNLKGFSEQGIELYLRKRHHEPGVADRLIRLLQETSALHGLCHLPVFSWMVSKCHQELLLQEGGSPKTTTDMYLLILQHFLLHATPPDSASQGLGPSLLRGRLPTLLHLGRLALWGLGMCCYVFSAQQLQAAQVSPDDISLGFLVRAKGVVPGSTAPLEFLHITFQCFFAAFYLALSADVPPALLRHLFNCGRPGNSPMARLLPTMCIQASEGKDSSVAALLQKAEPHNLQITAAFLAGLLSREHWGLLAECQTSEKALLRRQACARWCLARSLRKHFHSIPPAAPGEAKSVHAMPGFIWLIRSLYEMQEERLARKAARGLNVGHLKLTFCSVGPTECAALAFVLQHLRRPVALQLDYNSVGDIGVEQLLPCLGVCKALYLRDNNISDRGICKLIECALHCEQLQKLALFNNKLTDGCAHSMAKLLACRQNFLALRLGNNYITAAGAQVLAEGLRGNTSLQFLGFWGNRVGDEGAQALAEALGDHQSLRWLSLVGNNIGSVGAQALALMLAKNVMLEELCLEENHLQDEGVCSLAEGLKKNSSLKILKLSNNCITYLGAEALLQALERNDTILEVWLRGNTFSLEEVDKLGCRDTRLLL
Briefly: NF-κB transcriptional activity (SEAP reporter) in HEK-Blue NOD2 cells. The format is cell-based. The following applies: 18 h, eight concentrations 1 nM to 10 μM, NA, not active.
From the text: as §1, §2

The test system of a further series is RAW-Blue cells. Briefly: NF-κB transcriptional activity in RAW-Blue cells with or without NOD2/TLR7 antagonists. Conditions: 1 μM, 18 h; SG84 (5 μM), M5049 (1 μM). The class given is cell-based, murine. The method, then:
After the first two passages, 200 μg/mL Zeocin (Invivogen) was added to the medium every other passage, to maintain the selection pressure.
RAW-Blue cells were seeded (100,000 cells/well) in duplicate in 96-well plates in 200 μL of growth medium (without Normocin and Zeocin) and pretreated with a NOD2 antagonist SG84 (5 μM),[35] TLR7 antagonist M5049 (1 μM),[36] or both for 1 h, before the addition of compounds (1 μM) or the corresponding vehicle (0.1% DMSO). After 18 h of incubation (37 °C, 5% CO2), 10 μL of the induced supernatant was added to 90 μL of QUANTI-Blue solution (Invivogen). After 2 h of incubation (37 °C), SEAP activity was determined spectrophotometrically as absorbance at 630 nm (BioTek Synergy microplate reader; Winooski, VT). Statistical significance was determined with two-way ANOVA with subsequent Dunnett’s multiple comparisons test.

A further series relates to K562 cells. Briefly: PBMC cytotoxicity against K562 cancer cells. The format is cell-based. How it is done:
(§3) K562 cells are a chronic myelogenous leukemia cell line (Cat. code: CCL-243; ATCC, Manassas, VA)[60] and MEC1 cells are a B-chronic lymphocytic leukemia cell line (Cat. code: ACC 497; DSMZ GmbH, Braunschweig, Germany).[61]
(§4) The PBMC cytotoxicity assays using K562 and MEC1 cells were performed as described previously, with some modifications.[64] PBMCs were seeded (4 × 10^5 cells/well) in duplicate in 96-well U-bottom plates and treated with the compounds (1 nM–1 μM) or vehicle (0.1% DMSO) for 18 h. […] Cells that were positive for both CFSE and Sytox blue were defined as dead K562 and MEC1 cells. The gating strategy is described in Figure S4. PBMCs alone and CFSE-labeled cancer cells alone were also treated with the compounds at the same concentrations and stained with Sytox blue to exclude any direct cytotoxicity of the compounds toward the PBMCs and cancer cells. Statistical significance was determined with one-way ANOVA with subsequent Bonferroni’s multiple comparisons test.

The next series has as its system MEC1 cells. The experiment in a line: PBMC cytotoxicity against MEC1 cancer cells. The format is cell-based, human. Conditions: PBMCs stimulated 18 h, 1 μM; 4 h coincubation, effector:target 40:1. The method, then:
as §3, §4

A short description of series [1]: Kinetic solubility measurement. The format is physicochemical. Conditions: phosphate-buffered saline, aqueous buffer, kinetic from dmso stock; kinetic, PBS pH 7.4, 2% DMSO, 2 h room temperature.
Procedure: The content of DMSO in all solutions was fixed to 2% by adding the respective amounts of DMSO. The column used was Waters Acquity UPLC BEH C18 (1.7 μm, 2.1 × 50 mm^2). […] The column was thermostated at 40 °C.

≈ marks a conversion by molar mass, not a printed value.

Procedure for human PBMCs: Human PBMCs from healthy and consenting donors were isolated from heparinized blood by density gradient centrifugation using Ficoll-Paque (Pharmacia, Sweden).
Peripheral blood mononuclear cells were seeded (1 × 10^6 cells/mL) in 24-well plates in 500 μL of growth medium and treated with the compounds (1 μM), lipopolysaccharide (LPS; 1 μg/mL), or the corresponding vehicle (0.1% DMSO). Cell-free supernatants were collected after 18 h of incubation (37 °C, 5% CO2) and stored at −80 °C until tested. Cytokine production was determined with BD Cytometric Bead Array human inflammatory cytokines kit (BD Bioscience) on an Attune NxT flow cytometer (Thermo Fisher Scientific, Waltham, MA). Standard curves were generated using recombinant cytokines contained in the kit. The data were analyzed using the FlowJo (Tree Star, Inc., Ashland, OR) and Prism (GraphPad, San Diego, CA) software. Statistical significance was determined with one-way ANOVA with subsequent Bonferroni’s multiple comparisons test.

A word on the EC50: it is the concentration needed to bring the measured effect to its halfway point. Consider `CCCCOc1nc(N)c2nc(O)n(Cc3ccc(C(=O)O)cc3)c2n1` [Compound 1, 4-((6-Amino-2-butoxy-8-hydroxy-9H-purin-9-yl)methyl)benzoic acid, reference compound], for which the EC50 on TLR7 is 398 nM.

On to `CCOC(=O)CC[C@@H](NC(=O)[C@@H](NC(=O)CNC(=O)/C=C/c1ccc(O)c(OC)c1)C(C)C)C(=O)OCC` [Compound 2, Diethyl ((E)-3-(4-hydroxy-3-methoxyphenyl)acryloyl)glycyl-L-valyl-D-glutamate], for which the IL-8 production result in the series with human PBMCs was “significant increase”.

For orientation: solubility means the dissolved amount per volume that the medium holds. A high value points to much dissolved substance. For the compound `CCCCOc1nc(N)c2nc(O)n(Cc3ccc(C(=O)NCCCCCC(=O)Oc4ccc(/C=C/C(=O)NCC(=O)N[C@H](C(=O)N[C@H](CCC(=O)OCC)C(=O)OCC)C(C)C)cc4OC)cc3)c2n1` [Compound 3, Diethyl ((E)-3-(4-((6-(4-((6-amino-2-butoxy-8-hydroxy-9H-purin-9-yl)methyl)benzamido)hexanoyl)-oxy)-3-methoxyphenyl)acryloyl)glycyl-L-valyl-D-glutamate], the figures for the EC50 on NOD2 and on TLR7 were 114 nM and 161 nM, respectively. At TLR7 (ratio of EC50 values in HEK-Blue TLR7 cells), the “fold improved TLR7 activity over 1” value was “approximately 2 fold”. In the series with RAW-Blue cells, the “RAW-Blue activity in the presence of NOD2 or TLR7 antagonist” value was “decrease in activity after antagonizing TLR7 was more prominent”. The “cytolytic activity of PBMCs against K562 cells” value in the series with K562 cells (PBMCs stimulated 18 h, 1 μM, 4 h coincubation, effector:target 40:1) was “significantly enhanced”. Also, the “concentration at which significant PBMC cytotoxicity was observed” value with K562 cells (tested 1 nM-1 μM, cancer cell line not specified (K562 or MEC1, Figure S5)) came out at 1 µM. For the same compound, the “cytolytic activity of PBMCs against MEC1 cells” value with MEC1 cells is given as “significantly enhanced”. Besides, the solubility at 2 h in series [1] turned out to be 27.4 µM (≈ 27.1 µg/mL).
